Measured values published in ChEMBL document CHEMBL1201862, “PubChem BioAssay data set” (2004).
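Values below derive from 48-hour exposures of cells grown in 96-well plates, with endpoints linearly interpolated between the two concentrations bracketing the appropriate inhibition level. At the GI50, growth is halved.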 The source made the active and inactive calls. Cut-off read from the data, not from the text of the source: active = GI50 up to about 1.1 µM and inactive = higher.

Experiments:
Assay in all cases: inhibition of tumour cell growth, NCI panel, 48 h
MDA-MB-231 = system: MDA-MB-231
MCF7 = system: MCF7
ACHN = system: ACHN
KM12 = system: KM12
SK-MEL-2 = system: SK-MEL-2
SK-MEL-5 = system: SK-MEL-5
K562 = system: K562
UACC-257 = system: UACC-257
DU-145 = system: DU-145
SK-MEL-28 = system: SK-MEL-28
SNB-75 = system: SNB-75
Malme-3M = system: Malme-3M
HCT-15 = system: HCT-15
EKVX = system: EKVX
HCT-116 = system: HCT-116
Hs-578T = system: Hs-578T
RPMI-8226 = system: RPMI-8226
T47D = system: T47D
PC-3 = system: PC-3
RXF 393 = system: RXF 393
HL-60 = system: HL-60
NCI-H226 = system: NCI-H226
SW-620 = system: SW-620
OVCAR-3 = system: OVCAR-3
786-0 = system: 786-0
M14 = system: M14
COLO 205 = system: COLO 205
NCI/ADR-RES = system: NCI/ADR-RES
TK-10 = system: TK-10
A498 = system: A498
HT-29 = system: HT-29
SN12C = system: SN12C
SNB-19 = system: SNB-19
MDA-N = system: MDA-N
SK-OV-3 = system: SK-OV-3
UACC-62 = system: UACC-62
LOX IMVI = system: LOX IMVI
CCRF-CEM = system: CCRF-CEM
MOLT-4 = system: MOLT-4
OVCAR-5 = system: OVCAR-5
CAKI-1 = system: CAKI-1
MDA-MB-435 = system: MDA-MB-435
OVCAR-8 = system: OVCAR-8
U-251 = system: U-251
SF-539 = system: SF-539
UO-31 = system: UO-31
BT-549 = system: BT-549
SF-268 = system: SF-268
NCI-H23 = system: NCI-H23
IGROV-1 = system: IGROV-1

## O=C(c1ccco1)N(C(=O)N1CCC(c2ccccc2)CC1)c1ccccc1
MDA-MB-231
  GI50: > 100 µM (inactive)
MCF7
  GI50: 66.5 µM (inactive)
ACHN
  GI50: > 100 µM (inactive)
KM12
  GI50: 27.2 µM (inactive)
SK-MEL-2
  GI50: 42.5 µM (inactive)
SK-MEL-5
  GI50: 21.6 µM (inactive)
K562
  GI50: 29 µM (inactive)
UACC-257
  GI50: 38.9 µM (inactive)
DU-145
  GI50: 83 µM (inactive)
SK-MEL-28
  GI50: 62.7 µM (inactive)
SNB-75
  GI50: 1.95 µM (inactive)
Malme-3M
  GI50: > 100 µM (inactive)
HCT-15
  GI50: 42 µM
EKVX
  GI50: 20.2 µM (inactive)
HCT-116
  GI50: 42.7 µM (inactive)
Hs-578T
  GI50: 60.4 µM (inactive)
RPMI-8226
  GI50: 17.4 µM (inactive)
T47D
  GI50: 21.4 µM (inactive)
PC-3
  GI50: 22.3 µM (inactive)
RXF 393
  GI50: 34 µM (inactive)
HL-60
  GI50: 19.3 µM (inactive)
NCI-H226
  GI50: 31.7 µM (inactive)
SW-620
  GI50: > 100 µM (inactive)
OVCAR-3
  GI50: 47 µM (inactive)
786-0
  GI50: 92.9 µM (inactive)
M14
  GI50: 41.4 µM (inactive)
COLO 205
  GI50: 39.7 µM (inactive)
NCI/ADR-RES
  GI50: 23.2 µM (inactive)
TK-10
  GI50: 55.3 µM (inactive)
A498
  GI50: 94.8 µM (inactive)
HT-29
  GI50: 47.6 µM (inactive)
SN12C
  GI50: > 100 µM (inactive)
SNB-19
  GI50: > 100 µM (inactive)
MDA-N
  GI50: 42.5 µM (inactive)
SK-OV-3
  GI50: 81.5 µM (inactive)
UACC-62
  GI50: 52.1 µM (inactive)
LOX IMVI
  GI50: 59.7 µM (inactive)
CCRF-CEM
  GI50: 26.5 µM (inactive)
MOLT-4
  GI50: 17.7 µM (inactive)
OVCAR-5
  GI50: > 100 µM (inactive)
CAKI-1
  GI50: > 100 µM (inactive)
MDA-MB-435
  GI50: 35 µM (inactive)
OVCAR-8
  GI50: 40.7 µM (inactive)
U-251
  GI50: 76.2 µM (inactive)
SF-539
  GI50: 74.5 µM (inactive)
UO-31
  GI50: 24.4 µM (inactive)
BT-549
  GI50: 33.7 µM (inactive)
SF-268
  GI50: 99.3 µM (inactive)
NCI-H23
  GI50: 45.7 µM (inactive)
IGROV-1
  GI50: 25.9 µM (inactive)
